# According to patent publication US8697840B2, “Peptide inhibition of lung epithelial apoptosis and pulmonary fibrosis” (Board of Regents, The University of Texas System, priority 2008, dated 2014):
# What was measured:
# uPAR = assay: IHC of lung tissue of bleo-treated mice: uPAR; assay type: in vivo, mouse; conditions: bleomycin-treated mice, 48-72 h
# Procedure: (§1) For immunohistochemical (IHC) analysis, lungs were inflated at constant pressure of 20 cm H2O, removed and fixed overnight in 2% paraformaldehyde in PBS. Tissue was dehydrated by passage through a standard alcohol series and was embedded in paraffin. 5 μm sections were deparaffinized with xylene followed by incubation with 100% and 95% alcohol. After 10 min of antigen retrieval, the slides were incubated with H2O2 for 30 min to quench endogenous peroxidase. Slides were incubated overnight with the respective antibodies in PBS containing 0.1% Tween 20 and further processed using Lab vision kit (Freemont Calif.).
# (§2) An IHC study was conducted to analyze lung tissue for expression p53, uPA, uPAR, PAI-1 and cleaved caspase 3 (Table 2). […] These IHC observations were confirmed by Western blotting (see Example II and FIG. 5).
# PAI-1 = assay: IHC of lung tissue of bleo-treated mice: PAI-1; assay type: in vivo, mouse; conditions: bleomycin-treated mice, 24-72 h
# Procedure: as §1, §2
# uPA = assay: IHC of lung tissue of bleo-treated mice: uPA; assay type: in vivo, mouse; conditions: bleomycin-treated mice, 48-72 h
# Procedure: as §1, §2
# [1] = system: bleomycin-induced lung epithelial cell (LEC) apoptosis; assay: TUNEL staining for apoptosis of lung sections of bleo-treated mice; assay type: in vivo, mouse; conditions: for Lung epithelial cell apoptosis: appearance of cells / Lung epithelial cell apoptosis: cell death: bleo-treated animals, peptide one day after bleo; for Lung epithelial cell apoptosis: appearance of cells: lung tissue day 21; for Lung epithelial cell apoptosis: cell death: lung tissue day 21, TUNEL; for apoptosis (TUNEL positive cells): peptide 4.5 μM i.p. on day 1 and 2, bleomycin 40 μg/50 μl intranasal on day 2, 24, 48 and 72 h
# Procedure: The mice were sacrificed 24, 48 and 72 h later. Lungs were excised, inflated and fixed in formalin, and […] sections were analyzed by TUNEL staining. […]
# [2] = system: bleo-induced collagen deposition in mouse lung; assay: Mason's Trichrome stain for collagen of lung sections of bleo-treated mice; assay type: in vivo; conditions: for Collagen content in lung section: bleo-treated animals, peptide one day after bleo, day 21, trichrome stain
# Procedure: FIG. 13 is a set of photomicrographs showing that PP-1 prevents bleo-induced collagen deposition in mouse lung. Mice were treated with bleo (50 μg/ml) by intranasal instillation followed by treatment with PP-1 (10 nM) or control peptide CP-1 on day 2. Lungs were excised on day 21, inflated and fixed in formalin, a sectioned into […] sections which were subjected to Mason's Trichrome stain (a three-color stain that stains cell nuclei red, collagen green or blue, and cytoplasm red). Blue staining indicates collagen deposition in bleo-treated lung sections.
# FIGS. 14A & 14B is a series of photomicrographs of lung epithelial tissue stained with Mason's trichrome stain for collagen (FIG. 10A) and by TUNEL staining for apoptosis (FIG. 10B). Bleo-treated animals were instilled with either PP-1, PP-2 or control peptide CP-1 one day after bleo treatment, The lungs were removed on day 21, subjected to the staining procedures and examined for collagen accumulation or apoptosis.
# Collagen deposition in mouse lung after bleo treatment was investigated. Mice were treated with bleo (50 μg/ml) by intranasal instillation followed by treatment with PP-1 (10 nM) (designated as PP in Figure) or control peptide CP-1 (designated CP in FIG. 13) on day 2. Lungs were excised on day 21, inflated and fixed in formalin, a sectioned into […] sections which were subjected to Mason's Trichrome stain (a three-color stain that stains cell nuclei red, collagen green or blue, and cytoplasm red).
# A comparison was made of normal and bleo-treated lung, and the effect of PP-1 and PP-2 on the bleo-treated lungs were examined. Animals were treated with bleo and peptides as above. Lung tissue was removed at day 21 and stained with Mason's trichrome stain for collagen and subjected to TUNEL staining for apoptosis.
# [3] = system: bleo-induced lung injury in the mouse; assay: Lung desmosine (elastin) after bleo-induced lung injury; assay type: in vivo; conditions: 50 μg Bleo intranasally; 10 mM peptide in 0.1 ml osmotic pump i.p. one day later; lungs after 21 days
# Procedure: (§3) FIGS. 10A and 10B are graphs showing the effect of PP-1 on fibrosis following bleo-induced lung injury in the mouse. […] 24 h after bleo, 0.1 ml osmotic pump filled with 10 mM PP-1 (designated “Bleo+PP” in Figures) or CP1 control scrambled peptide (“Bleo+CP1”) were implanted intraperitoneally. Lungs were harvested after 21 days, homogenized and the homogenates were subjected to the analysis of hydroxyproline or desmosine levels.
# (§4) Lungs were harvested after 21 days, homogenized and the homogenates were subjected to the analysis of hydroxyproline as above (FIG. 10A) or desmosine (FIG. 10B). The effect of PP-1 on fibrosis in bleo-induced mouse lung injury was evaluated. Mice were treated with saline or 50 μg Bleo intranasally were implanted one day later with, 0.1 ml osmotic pumps i.p. The pumps were filled with either 10 mM (2.92 mg/100 μl) PP-1 (“Bleo+PP-1”) or control scrambled peptide CP-1 (“Bleo+CP-1”).
# [4] = system: bleo-induced lung injury in the mouse; assay: Lung hydroxyproline (collagen deposition) after bleo-induced lung injury; assay type: in vivo; conditions: for lung hydroxyproline levels: 50 μg Bleo intranasally, 10 mM peptide in 0.1 ml osmotic pump i.p. one day later, lungs after 21 days
# Procedure: as §3
# Anesthetized mice received intranasal bleomycin HCl solution containing 40 μg/50μl in sterile saline solution. After 24 h, 7 days or 14 days 10 mM PP-1 (“Bleo+PP-1”) or control peptide (Bleo+CP-1) were given ip using a 0.1 ml osmotic pump. Mice were sacrificed and lungs excised 21 days later. Lung homogenates were analyzed for hydroxyproline. Results are expressed a % of control hydroxyproline concentration.
# Anesthetized mice received intranasal bleomycin HCl solution containing 40 μg/50 μl in sterile saline solution. After day 7, 10 mM peptide PP-2 (“Bleo+PP-2”) or control peptide (“Bleo+CP-2) were given intraperitoneally using a 0.1 ml osmotic pump. Lungs were excised after 21 days, lungs were homogenized and the homogenates were analyzed for hydroxyproline. Results are expressed a % of control hydroxyproline concentration.
# The hPro content of the whole mouse lungs tissues were measured using the technique of Woessner J F, 1961, Arch. Biochem. Biophys. 93:440-7). Lung tissue from each animal was homogenized in 1.0 ml of extraction buffer. One ml 12N HCl was added, and the samples were hydrolyzed at 110° C. for 24 h. After cooling, 5 μl of the samples were mixed with 5 μl of citrate-acetate buffer (5% citric acid, 1.2% glacial acetic acid, 7.25% sodium acetate and 3.4% sodium hydroxide) and 100 μl of chloramine-T solution (1.4% chloramine-T, 10% N-propanol, and 80% citrate acetate buffer) in 96 well plates. The mixture was incubated for 20 min at room temperature. A total of 100 μl of Ehrlich's solution (2.5 g p-dimethylaminobenzaldehyde added to 9.3 ml of n-propanol and 3.9 ml of 70% perchloric acid) was added to each well and the plates incubated at 65° C. for 18 min. The absorbance of each sample was measured at 550 nm. Standard curves were generated for each experiment using a known concentration of reagent hPro. Results were expressed as % changes in hPro content (with total hPro content of saline-treated control mouse lungs considered 100%).
# as §4
# [5] = conclusion from Table 3, day 21
substance,measurement,setting,value
Bleomycin,uPAR levels in lung tissue (IHC),uPAR,uPA and uPAR levels fell between 48-72 h of bleomycin exposure
same,PAI-1 expression in lung tissue (IHC),PAI-1,PAI-1 expression was also increased in bleomycin-treated mice beginning 24 h after treatment
same,uPA levels in lung tissue (IHC),uPA,uPA and uPAR levels fell between 48-72 h of bleomycin exposure
same,Lung epithelial cell apoptosis: appearance of cells,[1],"Fibrotic cells,"
same,Lung epithelial cell apoptosis: cell death,[1],80% cell death
same,apoptosis (TUNEL positive cells),[1],increased apoptosis (TUNEL positive cells) as early as 24 h after exposure
same,Collagen content in lung section,[2],Increased
same,lung desmosine levels,[3],significant increase in lung hydroxyproline or desmosine levels
same,lung hydroxyproline levels,[4],significant increase in lung hydroxyproline or desmosine levels
"DGIWKASFTTFTVTKYWFYR [PP-1, residues 82-101 of human Cav-1, the caveolin-1 scaffolding domain]",uPAR levels in lung tissue (IHC),uPAR,reversed this suppression
same,PAI-1 expression in lung tissue (IHC),PAI-1,reduced this PAI-1 expression
same,uPA levels in lung tissue (IHC),uPA,reversed this suppression
same,bleo-induced mouse lung injury (TUNEL staining for apoptosis),"[1]; bleo 50 μg/ml intranasal, peptide intranasally 3.35 μM (375 μg/50 μl) on day 2, 4 and 6, lungs after 21 days",prevented bleo-induced mouse lung injury in vivo
same,Lung epithelial cell apoptosis: appearance of cells,[1],"No fibrosis,"
same,Lung epithelial cell apoptosis: cell death,[1],12% cell
same,protection of LECs from bleo-induced lung injury,[1]; [5],> 90%
same,bleo-induced LEC apoptosis (apoptotic scores),"[1]; i.p. 0.1 ml osmotic minipump, 10 mM peptide, one day after intranasal bleo, lungs after 16 days",protect against bleo-induced LEC apoptosis
same,apoptosis (TUNEL positive cells),[1],reversed bleomycin-induced apoptosis
same,bleo-induced collagen deposition (Mason's Trichrome stain),"[2]; bleo 50 μg/ml intranasal, PP-1 (10 nM) on day 2, lungs day 21",prevented bleo-induced collagen deposition
same,Collagen content in lung section,[2],Normal
same,development of bleo-induced lung fibrosis,[2]; [5],prevented the development of bleo-induced lung fibrosis
same,lung desmosine levels,[3],"significantly reduced, to normal levels"
same,lung hydroxyproline levels,[4],"significantly reduced, to normal levels"
same,"bleomycin-induced collagen deposition (hydroxyproline, % of control)","[4]; bleomycin 40 μg/50 μl intranasal, 10 mM peptide i.p. osmotic pump after 24 h, 7 days or 14 days, lungs 21 days",significantly inhibited bleomycin-induced collagen deposition and lung fibrosis
